According to patent US20190364891A1, “Chemical Compositions for Combating Honey Bee Pests and Pathogens” (Fort Lewis College, priority 2018, published 2019):

What was measured:
Varroa mites [1] = assay: whole plant or invertebrate; details: for mite mortality: 24 h; for statistically significant mite mortality (Kruskal-Wallis): at 24 h, 100 mg/mL, 250 mg/mL, 1 g/mL tested, 15, 30 or 45 min exposure
Protocol: Efficacy of 12 caffeic and ferulic acid/ester molecules (caffeic acid, ferulic acid, caffeic acid cinnamyl ester, caffeic acid phenethyl ester, caffeic acid 3-methyl-3-butenyl ester, caffeic acid 3-methyl-2-butenyl ester, caffeic acid benzyl ester, ferulic acid cinnamyl ester, ferulic acid phenethyl ester, ferulic acid 3-methyl-3-butenyl ester, ferulic acid 3-methyl-2-butenyl ester, ferulic acid benzyl ester) against Varroa mites in a laboratory assay was determined. Adult female mites were collected from a single honey bee colony by uncapping drone cells and removing the mites to avoid injury that might occur if other methods (e.g., sugar shake) were used. Mites lacking vigor were discarded prior to experiment. Varroa were removed from single-age pupae, randomized, and placed in groups of ten in a sealed chamber. They were left in an incubator with pupae. After a set amount of time, the Varroa were transferred to a chamber with a potential miticide. The effects of each miticide were evaluated both through contact and through vapor. Concentrations and contact time were also evaluated. The Varroa were then transferred back to their chamber in the incubator and checked for mortality (each experiment in triplicate). […] Treatments were tested for their efficacy in repelling and killing mites.
To test for contact-phase miticidal activity, 250 μl of each treatment was evenly applied to a Whatman No. 4 filter paper in a Petri dish. The paper was allowed to completely dry before the assay and then it was adhered to the bottom of the dish. Ten mites per treatment were placed directly on the filter paper and the mites were kept in the dish for either 15 min, 30 min, or 45 min. After the initial time period, all mites were transferred into a sterile Petri dish and maintained in an incubator for 30 h. Each hour the mites were removed and observed under a dissecting lens. Each treatment concentration and exposure period was repeated three times.
Statistical analysis for repellency was conducted on the mean number of mites repelled and was compared by a two-way ANOVA. […] Percent mortality was compared between treatments by a non-parametric Kruskal-Wallis test.

Varroa mites [2] = assay: Example 2: mites exposed to filter paper impregnated with the caffeic ester family, mite mortality and activity; set-up: species or system Varroa destructor; details: assessed 6 h, 24 h, 30 h post exposure; various concentrations and exposure times
Protocol: In a series of assays, Whatman filter paper was impregnated with various concentrations of the caffeic ester family of molecules. Varroa mites were freshly harvested from brood frames and then directly exposed to the substrate. The exposure time was varied across different experiments. The Varroa mites were removed and placed into an incubator with pupae to feed on. Mite mortality and mite activity was assessed at several time points (6 h, 24 h, 30 h) post exposure.

SMILES | mite mortality (Varroa mites [1]) | statistically significant mite mortality (Kruskal-Wallis) (Varroa mites [1]) | other results
O=C(/C=C/c1ccc(O)c(O)c1)OCC=Cc1ccccc1 [caffeic acid cinnamyl ester] | over 60% |  | 
O=C(/C=C/c1ccc(O)c(O)c1)OCCc1ccccc1 [caffeic acid phenethyl ester] |  |  | relative efficacy (mite mortality and activity) (Varroa mites [2]): most efficacious molecule tested
O=C(O)/C=C/c1ccc(O)c(O)c1 [caffeic acid] |  | all of the molecules except caffeic acid and ferulic acid showed statistically significant mite mortality | 
COc1cc(/C=C/C(=O)OCC=C(C)C)ccc1O [ferulic acid 3-methyl-2-butenyl ester] | over 60% |  | 
COc1cc(/C=C/C(=O)O)ccc1O [ferulic acid] |  | all of the molecules except caffeic acid and ferulic acid showed statistically significant mite mortality | 
Cc1ccc(C(C)C)c(O)c1 [thymol, reference compound] |  |  | mortality at 100000 µg/mL (Varroa mites [1]; Varroa destructor, 6 h, read-out: mortality (positive control)): 100%
